# Data published in US9255132B2, “Angiopoietin derived peptides” (Compugen Ltd., priority 2008, dated 2016).
# Residues, ends and D or L forms follow the SMILES beside them.
# What was measured:
# [1] = tested on: oxygen-induced retinopathy (OIR); test: Rodent model of oxygen-induced retinopathy (OIR); assay type: in vivo, Sprague Dawley rats; conditions: for inhibition of pre-retinal neovascular growth (pathological angiogenesis): relative to PBS-injected eyes, P20
# From the text: In order to assess the in viva efficacy of CGEN-A 11 [SEQ ID NO: 10] in a disease model of angiogenesis, a rodent model of oxygen-induced retinopathy (OIR) was used. Sprague Dawley rats were raised from birth through day PI4 in a variable oxygen atmosphere consisting of 24-hour alternating cycles of 50% and 10% oxygen. Rats were predisposed to pathological retinal angiogenesis as a result of oxygen treatment. Upon removal from the oxygen exposure chamber on day P14, rats received intravitreal injections of CGEN-A11 [SEQ ID NO: 10] in one of two doses: 15 μg/ml (low) or 75 μg/ml (high), 100 μg/ml recombinant rat Tie-2/Fc (R&D Systems, 3874-T2) or 100 μg/ml anti-VEGFR2 (Sigma, V1014) as positive controls, a combination of CGEN-A11 [SEQ ID NO: 10] at 30 μg/ml and anti-VEGFR2 (100 μg/ml), or vehicle (PBS) at a volume of 5 μl. An additional similar intravitreal administration took place 3 days later, on day P17. All pups were sacrificed on day P20. Both normal, intra-retinal vascular growth and abnormal, pre-retinal neovascular growth were assessed at six days post-exposure (P20) in ADPase-stained retinal flat-mounts, using widely published methods (e.g. Penn J S et al., 1991, Invest Ophthalmol Vis Sci. 32(4):1147; MicLeod D S et al., 1987, Microvasc Res. 33:257-269). All assessments were performed by a single, highly trained observer, who was blinded to treatment group. Areas of normal and abnormal vascular growth were measured via computer-assisted image analysis using high-resolution digital images of the stained retinal flat-mounts. The data were subjected to analysis of variance to determine statistical significance and a Dunnett's post hoc test to identify how the various treatment groups compared.
# Data are depicted using percent total retinal area vascularized. Sample sizes (10, 11 or 12) are indicated on each bar. […] These differences yielded statistical significance, both at p<0.0001. Statistical significance was calculated using area (mm^2) measurements.
# Data are depicted as area vascularized (mm^2). Sample sizes (10, 11 or 12) are indicated on each bar.
# [2] = target: T1, recombinant human Tie-2/Fc chimera (Homo sapiens, UniProt Q02763); test: BIACORE (SPR) direct binding of peptides to immobilized Tie2; conditions: 10-50 μM peptide
# T1 construct: purchased R&D Systems 313-TI
# From the text: The capability of CGEN-G6 [SEQ ID NO: 6], CGEN-F9 [SEQ ID NO: 7], CGEN-C6 [SEQ ID NO: 9], CGEN-A11 [SEQ ID NO: 10], and CGEN-G2 [SEQ ID NO: 11] to specifically bind to recombinant Tie2 and interfere with the binding of Ang1, Ang2, or Ang4 to Tie2 was investigated using the BIACORE technology, measuring protein-protein interaction and binding affinity (Wendler et al 2005, Anal Bioanal Chem, 381: 1056-1064). The technology is based on surface plasmon resonance (SPR), an optical phenomenon that enables detection of unlabeled interactants in real time. […]
# Peptide-protein interaction was analyzed using surface plasmon resonance. […] Solutions containing 10-50 μM of CGEN-G6 [SEQ ID NO: 6], CGEN-F9 [SEQ ID NO: 7], CGEN-C6 [SEQ ID NO: 9], CGEN-A11 [SEQ ID NO: 10], and CGEN-G2 [SEQ ID NO: 11] were injected into the sample chamber of the BIACORE device at a rate of 20 μl/min and the interaction was monitored using surface plasmon resonance. In addition, solutions containing 100-500 nM of Ang1, Ang2, and Ang4 proteins were injected alone or in combination with 10-50 μM of CGEN-G6 [SEQ ID NO: 6], CGEN-F9 [SEQ ID NO: 7], CGEN-C6 [SEQ ID NO: 9], CGEN-A11 [SEQ ID NO: 10], and CGEN-G2 [SEQ ID NO: 11] peptides at a constant ratio of 1:100 (Ang ligand to peptide) into the sample chamber of the BIACORE device at a rate of 20 μl/min and the interaction was monitored using surface plasmon resonance. […]
# T1 sequence (Q02763 with tags, fused parts or gaps limits assumed): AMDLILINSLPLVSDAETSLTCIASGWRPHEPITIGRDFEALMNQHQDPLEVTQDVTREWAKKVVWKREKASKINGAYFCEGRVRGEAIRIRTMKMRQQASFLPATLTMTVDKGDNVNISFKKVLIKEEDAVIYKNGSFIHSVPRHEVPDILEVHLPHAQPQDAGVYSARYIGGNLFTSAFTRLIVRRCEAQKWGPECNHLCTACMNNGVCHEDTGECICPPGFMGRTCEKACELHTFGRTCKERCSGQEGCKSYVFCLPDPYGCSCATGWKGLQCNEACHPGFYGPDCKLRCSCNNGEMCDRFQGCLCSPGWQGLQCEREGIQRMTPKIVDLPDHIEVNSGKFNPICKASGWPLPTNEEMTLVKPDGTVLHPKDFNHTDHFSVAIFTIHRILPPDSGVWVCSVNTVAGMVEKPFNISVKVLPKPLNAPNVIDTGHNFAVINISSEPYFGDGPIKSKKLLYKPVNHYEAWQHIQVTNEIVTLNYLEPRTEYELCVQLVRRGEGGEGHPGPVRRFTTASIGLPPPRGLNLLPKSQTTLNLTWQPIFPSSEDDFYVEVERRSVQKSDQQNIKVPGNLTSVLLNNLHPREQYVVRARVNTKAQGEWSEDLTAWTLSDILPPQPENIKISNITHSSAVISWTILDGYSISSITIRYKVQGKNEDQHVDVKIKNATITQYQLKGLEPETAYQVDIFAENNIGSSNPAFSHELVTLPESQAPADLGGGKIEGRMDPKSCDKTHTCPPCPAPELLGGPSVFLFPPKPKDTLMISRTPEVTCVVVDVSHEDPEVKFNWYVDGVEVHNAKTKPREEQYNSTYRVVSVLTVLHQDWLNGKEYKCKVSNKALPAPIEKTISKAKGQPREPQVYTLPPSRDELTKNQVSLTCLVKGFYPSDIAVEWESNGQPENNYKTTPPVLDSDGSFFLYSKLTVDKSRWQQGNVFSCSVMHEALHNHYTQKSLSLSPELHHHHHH
SMILES,inhibition of pre-retinal neovascular growth (pathological angiogenesis) ([1]; intravitreal 15 μg/ml) [%],"intra-retinal normal vascular growth compared to PBS control ([1]; intravitreal 75 μg/ml, 5 μl, P14 and P17, assessed P20, p<0.0001)","inhibition of pre-retinal neovascular growth (pathological angiogenesis) ([1]; intravitreal 75 μg/ml, p=0.0126) [%]",binding of peptide alone to immobilized Tie2 [2]
"CC(=O)N[C@@H](CCC(=O)O)C(=O)N[C@H](C(=O)N[C@@H](Cc1ccccc1)C(=O)N[C@@H](CC(C)C)C(=O)N[C@@H](CO)C(=O)N[C@H](C(=O)N[C@@H](CC(N)=O)C(=O)N[C@@H](CCCCN)C(=O)N[C@@H](CC(C)C)C(=O)N[C@@H](CCC(=O)O)C(=O)N[C@@H](CC(N)=O)C(=O)N[C@@H](CCC(N)=O)C(N)=O)[C@@H](C)O)[C@@H](C)O [CGEN-A11, ETFLSTNKLENQ] (Ac-ETFLSTNKLENQ-NH2)",38.9,statistically significant increase,76.4,–
CC[C@H](C)[C@H](NC(=O)[C@H](C)NC(=O)[C@H](CCCNC(=N)N)NC(=O)[C@H](CCC(=O)O)NC(=O)[C@H](CC(C)C)NC(=O)[C@H](CCCCN)NC(=O)[C@H](CCCCN)NC(=O)[C@H](CC(C)C)NC(=O)[C@H](Cc1c[nH]c2ccccc12)NC(=O)[C@H](CCC(N)=O)NC(=O)[C@@H](NC(=O)[C@H](CC(N)=O)NC(=O)[C@H](CC(N)=O)NC(=O)[C@H](CCC(N)=O)NC(=O)[C@H](CC(C)C)NC(=O)[C@H](C)NC(=O)[C@H](CCC(N)=O)NC(=O)[C@H](CCC(=O)O)NC(=O)[C@H](CC(C)C)NC(=O)[C@H](CCC(N)=O)NC(=O)[C@H](CCCCN)NC(=O)[C@@H](NC(=O)[C@H](CCC(N)=O)NC(=O)[C@H](CCC(N)=O)NC(=O)[C@@H](NC(C)=O)[C@@H](C)O)C(C)C)[C@@H](C)O)C(=O)N[C@@H](CCCCN)C(=O)N[C@H](C(=O)N[C@H](C(=O)N[C@@H](CC(C)C)C(N)=O)[C@@H](C)CC)[C@@H](C)O [CGEN-G2] (Ac-TQQVKQLEQALQNNTQWLKKLERAIKTIL-NH2),–,–,–,some non specific binding
